Test results published in patent US8354436B2 (4SC Discovery GmbH, priority 2011, dated 2013).
Read-outs that look alike come from different tables or passages of the source.

Columns and labels:
Format in all cases: cell-based
Details in all cases: 48 hours
[1] = system: PBMC from healthy human donors; assay: T cell proliferation assay (PHA-stimulated human PBMC, BrdU ELISA)
Outline: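 Healthy-donor PBMC isolated on Ficoll, seeded at 1×10⁵ cells/well in RPMI with 10% dialysed FCS, stimulated with 2 μg/ml PHA in presence of test compound. Proliferation read after 48 hours by BrdU-incorporation ELISA.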

IL-17FF = IL-17FF production by PHA-stimulated human PBMC (human IL-17F ELI-Pair)
Outline: (§1)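 Compounds are titrated semilogarithmically for IC50, or tested at 10, 1, 0.1 and 0.01 μM for screening, on healthy-donor PBMC activated with 2 μg/ml PHA. After 48 h, secreted cytokine is measured in supernatant.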

IFN-γ = IFN-γ production by PHA-stimulated human PBMC (OptEIA human IFN-g ELISA)
Outline: as §1

[2] = PHA-stimulated human PBMC, column D, read-out: IC50 (Tcell proliferation)
[3] = PHA-stimulated human PBMC, column B, read-out: IC50 (IL-17FF)
[4] = PHA-stimulated human PBMC, column C, read-out: IC50 (IFNγ)
[5] = human PBMC, 2 μg/ml PHA, read-out: D: IC50 (Tcell proliferation)
[6] = human PBMC, 2 μg/ml PHA, read-out: B: IC50 (IL-17FF)
[7] = human PBMC, 2 μg/ml PHA, read-out: C: IC50 (IFNγ)

Structure (SMILES) | IC50 [1, 2] [nM] | IC50 (IL-17FF; [3]) [nM] | IC50 (IFN-γ; [4]) [nM] | IC50 [1, 5] [nM] | IC50 (IL-17FF; [6]) [nM] | IC50 (IFN-γ; [7]) [nM]
CON(C)C(=O)c1c(-c2c(F)cccc2Cl)noc1-c1cnn(-c2ccccc2F)c1C(F)(F)F [IB-53, 3-(2-chloro-6-fluorophenyl)-5-(1-(2-fluorophenyl)-5-(trifluoromethyl)-1H-pyrazol-4-yl)-N-methoxy-N-methylisoxazole-4-carboxamide] | 100 to 1000 | 100 to 1000 | 100 to 1000 | – | – | –
CCOC(=O)c1c(-c2ccncc2F)noc1-c1cnn(-c2ccncc2)c1C(F)(F)F [IB-3, ethyl 3-(3-fluoropyridin-4-yl)-5-(1-(pyridin-4-yl)-5-(trifluoromethyl)-1H-pyrazol-4-yl)isoxazole-4-carboxylate] | 100 to 1000 | 100 to 1000 | 10 to 100 | – | – | –
CCOC(=O)c1c(-c2c(Cl)cncc2Cl)noc1-c1cnn(-c2ccccn2)c1C(F)(F)F [IB-5, ethyl 3-(3,5-dichloropyridin-4-yl)-5-(1-(pyridin-2-yl)-5-(trifluoromethyl)-1H-pyrazol-4-yl)isoxazole-4-carboxylate] | 1000 to 10000 | 1000 to 10000 | 100 to 1000 | – | – | –
CON(C)C(=O)c1c(-c2c(F)cccc2Cl)noc1-c1cnn(-c2ccccc2Cl)c1C(F)(F)F [IB-51, 3-(2-chloro-6-fluorophenyl)-5-(1-(2-chlorophenyl)-5-(trifluoromethyl)-1H-pyrazol-4-yl)-N-methoxy-N-methylisoxazole-4-carboxamide] | 1000 to 10000 | 1000 to 10000 | 1000 to 10000 | – | – | –
Cc1nnc(-c2c(-c3c(F)cccc3Cl)noc2-c2cnn(-c3cccnc3)c2C(F)(F)F)o1 [Example B-10, 2-(3-(2-chloro-6-fluorophenyl)-5-(1-(pyridin-3-yl)-5-(trifluoromethyl)-1H-pyrazol-4-yl)isoxazol-4-yl)-5-methyl-1,3,4-oxadiazole] | – | – | – | 100 to 1000 | 100 to 1000 | 10 to 100
COC(=O)c1c(-c2c(F)cccc2Cl)noc1-c1cnn(-c2cccc(Cl)c2)c1 [Example I-115, methyl 3-(2-chloro-6-fluorophenyl)-5-(1-(3-chlorophenyl)-1H-pyrazol-4-yl)isoxazole-4-carboxylate] | 1000 to 10000 | 1000 to 10000 | 1000 to 10000 | – | – | –
Fc1cccc(Cl)c1-c1noc(-c2cnn(-c3ccncc3)c2C(F)(F)F)c1Br [IB-83, 4-bromo-3-(2-chloro-6-fluorophenyl)-5-(1-(pyridin-4-yl)-5-(trifluoromethyl)-1H-pyrazol-4-yl)isoxazole] | 1000 to 10000 | 100 to 1000 | 1000 to 10000 | – | – | –
COC(=O)c1c(-c2c(F)cccc2Cl)noc1-c1cnn(C(C)C)c1C(F)(F)F [Example I-66, methyl 3-(2-chloro-6-fluorophenyl)-5-(1-isopropyl-5-(trifluoromethyl)-1H-pyrazol-4-yl)isoxazole-4-carboxylate] | 1000 to 10000 | 1000 to 10000 | 100 to 1000 | – | – | –
Fc1cccc(Cl)c1-c1noc(-c2cnn(-c3cccc(Cl)c3)c2C(F)(F)F)c1-c1ccoc1 [Example B-7, 3-(2-chloro-6-fluorophenyl)-5-(1-(3-chlorophenyl)-5-(trifluoromethyl)-1H-pyrazol-4-yl)-4-(furan-3-yl)isoxazole] | – | – | – | < 10 | < 10 | < 10
COC(=O)c1c(-c2c(F)cccc2Cl)noc1-c1cnn(-c2cccc(F)c2)c1 [IB-21, methyl 3-(2-chloro-6-fluorophenyl)-5-(1-(3-fluorophenyl)-1H-pyrazol-4-yl)isoxazole-4-carboxylate] | 100 to 1000 | 100 to 1000 | 100 to 1000 | – | – | –
CCOC(=O)c1c(-c2onc(-c3c(F)cccc3Cl)c2C(=O)OC)cnn1-c1ccc(F)cc1F [Example I-35, methyl 3-(2-chloro-6-fluorophenyl)-5-(1-(2,4-difluorophenyl)-5-(ethoxycarbonyl)-1H-pyrazol-4-yl)isoxazole-4-carboxylate] | 100 to 1000 | 100 to 1000 | 100 to 1000 | – | – | –
COC(=O)c1c(-c2c(F)cccc2Cl)noc1-c1cnn(-c2ccccc2F)c1C(F)(F)F [Example I-1, methyl 3-(2-chloro-6-fluorophenyl)-5-(1-(2-fluorophenyl)-5-(trifluoromethyl)-1H-pyrazol-4-yl)isoxazole-4-carboxylate] | 10 to 100 | 10 to 100 | < 10 | – | – | –
Fc1cccc(-n2ncc(-c3onc(-c4c(F)cccc4Cl)c3-c3ccsc3)c2C(F)(F)F)c1 [Example 16, 3-(2-chloro-6-fluorophenyl)-5-(1-(3-fluorophenyl)-5-(trifluoromethyl)-1H-pyrazol-4-yl)-4-(thiophen-3-yl)isoxazole] | – | – | – | < 10 | 100 to 1000 | < 10
CCOC(=O)c1c(-c2onc(-c3c(F)cccc3Cl)c2C(=O)OC)cnn1-c1cccc(Cl)c1 [Example I-10, methyl 3-(2-chloro-6-fluorophenyl)-5-(1-(3-chlorophenyl)-5-(ethoxycarbonyl)-1H-pyrazol-4-yl)isoxazole-4-carboxylate] | 10 to 100 | 100 to 1000 | 10 to 100 | – | – | –
O=C(O)c1c(-c2ccccc2Cl)noc1-c1cnn(-c2cccc(Cl)c2)c1C(F)(F)F [IB-42, 3-(2-chlorophenyl)-5-(1-(3-chlorophenyl)-5-(trifluoromethyl)-1H-pyrazol-4-yl)-isoxazole-4-carboxylic acid] | 1000 to 10000 | 1000 to 10000 | 1000 to 10000 | – | – | –
Fc1cccc(-n2ncc(-c3onc(-c4c(F)cccc4Cl)c3-c3nnn[nH]3)c2C(F)(F)F)c1 [Example 2, 3-(2-chloro-6-fluorophenyl)-5-(1-(3-fluorophenyl)-5-(trifluoromethyl)-1H-pyrazol-4-yl)-4-(1H-tetrazol-5-yl)isoxazole] | – | – | – | 1000 to 10000 | 1000 to 10000 | 1000 to 10000
Fc1cccc(-n2ncc(-c3onc(-c4c(F)cccc4Cl)c3-c3ccco3)c2C(F)(F)F)c1 [Example 17, 3-(2-chloro-6-fluorophenyl)-5-(1-(3-fluorophenyl)-5-(trifluoromethyl)-1H-pyrazol-4-yl)-4-(furan-2-yl)isoxazole] | – | – | – | < 10 | < 10 | < 10
Fc1cccc(-n2ncc(-c3onc(-c4c(F)cccc4Cl)c3-c3ccccc3)c2C(F)(F)F)c1 [Example 14, 3-(2-chloro-6-fluorophenyl)-5-(1-(3-fluorophenyl)-5-(trifluoromethyl)-1H-pyrazol-4-yl)-4-phenylisoxazole] | – | – | – | 100 to 1000 | 100 to 1000 | 10 to 100
CCOC(=O)c1c(-c2c(F)cccc2Cl)noc1-c1cnn(-c2ccccc2C#N)c1C(F)(F)F [IB-44, ethyl 3-(2-chloro-6-fluorophenyl)-5-(1-(2-cyanophenyl)-5-(trifluoromethyl)-1H-pyrazol-4-yl)-isoxazole-4-carboxylate] | 1000 to 10000 | 1000 to 10000 | 1000 to 10000 | – | – | –
O=C(c1c(-c2c(F)cccc2Cl)noc1-c1cnn(-c2cccnc2)c1C(F)(F)F)N1CCCO1 [IB-54, (3-(2-chloro-6-fluorophenyl)-5-(1-(pyridin-3-yl)-5-(trifluoromethyl)-1H-pyrazol-4-yl)isoxazol-4-yl)(isoxazolidin-2-yl)methanone] | 1000 to 10000 | 1000 to 10000 | 1000 to 10000 | – | – | –
CCOC(=O)c1c(-c2c(F)cccc2Cl)noc1-c1cnn(-c2ccc(NC(C)=O)cc2)c1C(F)(F)F [IB-99, ethyl 5-(1-(4-acetamidophenyl)-5-(trifluoromethyl)-1H-pyrazol-4-yl)-3-(2-chloro-6-fluorophenyl)isoxazole-4-carboxylate] | 1000 to 10000 | 1000 to 10000 | 1000 to 10000 | – | – | –
COC(=O)c1c(-c2ccccc2Cl)noc1-c1cnn(-c2cccc(Cl)c2)c1C(F)(F)F [IB-71, methyl 3-(2-chlorophenyl)-5-(1-(3-chlorophenyl)-5-(trifluoromethyl)-1H-pyrazol-4-yl)isoxazole-4-carboxylate] | < 10 | < 10 | < 10 | – | – | –
Nc1c(-c2c(F)cccc2Cl)noc1-c1cnn(-c2cccc(F)c2)c1C(F)(F)F [Example I-117, 3-(2-chloro-6-fluorophenyl)-5-(1-(3-fluorophenyl)-5-(trifluoromethyl)-1H-pyrazol-4-yl)isoxazol-4-amine] | 100 to 1000 | 100 to 1000 | 100 to 1000 | – | – | –
CCOC(=O)c1c(-c2ccccc2F)noc1-c1cnn(-c2cccc(Cl)c2)c1C(F)(F)F [IB-47, ethyl 5-(1-(3-chlorophenyl)-5-(trifluoromethyl)-1H-pyrazol-4-yl)-3-(2-fluorophenyl)isoxazole-4-carboxylate] | 10 to 100 | 10 to 100 | 10 to 100 | – | – | –
Fc1cccc(Cl)c1-c1noc(-c2cnn(-c3ccccc3Cl)c2C(F)(F)F)c1-c1nccs1 [Example B-29, 3-(2-chloro-6-fluorophenyl)-5-(1-(2-chlorophenyl)-5-(trifluoromethyl)-1H-pyrazol-4-yl)-4-(thiazol-2-yl)isoxazole] | – | – | – | 1000 to 10000 | 1000 to 10000 | 100 to 1000
Fc1cccc(-n2ncc(-c3onc(-c4c(F)cccc4Cl)c3-c3nnco3)c2C(F)(F)F)c1 [Example 7] | – | – | – | 10 to 100 | < 10 | < 10
CCOC(=O)c1c(-c2c(F)cccc2Cl)noc1-c1cnn(-c2ccccc2N)c1C(F)(F)F [IB-98, ethyl 5-(1-(2-aminophenyl)-5-(trifluoromethyl)-1H-pyrazol-4-yl)-3-(2-chloro-6-fluorophenyl)isoxazole-4-carboxylate] | 10 to 100 | 10 to 100 | 10 to 100 | – | – | –
